According to patent US20240132431A1, “METHOD FOR ALKYLATING ACIDIC FUNCTIONAL GROUP” (Chugai Seiyaku Kabushiki Kaisha, priority 2021, published 2024):
Each block holds one compound with its values, some of them ahead of it.

Biological target: T1, Bcl-2 protein (Recombinant Human Bcl-2 Protein) (Homo sapiens, UniProt P10415)
T1 construct: purchased Novus NBP2-34889
Test: Binding evaluation of mixture library compounds to Bcl-2 using AS-MS (affinity selection mass spectrometry)
Conditions: for ASMS ratio (%) n = 1: replicate n = 1; for ASMS ratio (%) n = 1 / ASMS ratio (%) n = 2: ASMS Ratio(%)=(A−C)/B×100; for ASMS ratio (%) n = 2: replicate n = 2
Procedure, shortened: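 Pooled library of ~1200 compounds ([…] each, final) incubated with recombinant human Bcl-2 (20 μM final) in Tris-HCl pH 7.4, NaCl, Tween-20, DTT buffer, dark, 23° C., 1 h. Bound fraction recovered by SEC spin column, organic extraction, reversed-phase LC/MS. ASMS Ratio (%) = (A−C)/B×100 versus protein-free standard and SEC blank.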

[1] = AS-MS, mixture of 1200 compounds, Bcl-2
[2] = AS-MS on the mixture of 1200 library compounds

T1 sequence (P10415 whole entry): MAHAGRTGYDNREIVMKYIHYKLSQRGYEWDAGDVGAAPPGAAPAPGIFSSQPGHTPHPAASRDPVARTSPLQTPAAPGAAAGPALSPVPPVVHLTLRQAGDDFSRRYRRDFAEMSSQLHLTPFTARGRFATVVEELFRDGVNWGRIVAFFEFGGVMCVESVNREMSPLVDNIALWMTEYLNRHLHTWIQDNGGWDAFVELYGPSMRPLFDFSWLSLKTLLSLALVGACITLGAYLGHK

ASMS ratio (%) n = 1 (AS-MS, mixture library, Bcl-2): 8.2%
ASMS ratio (%) n = 2 (AS-MS, mixture library, Bcl-2): 6.9%
Compound: CCOc1cccc(-c2ccc(C(=O)N3CCN(c4ccc(C(=O)NS(=O)(=O)c5ccc(NCCSc6ccccc6)c([N+](=O)[O-])c5)nn4)CC3)cc2C)c1 [B2Q003-01, 6-[4-[4-(3-Ethoxyphenyl)-3-methylbenzoyl]piperazin-1-yl]-N-[3-nitro-4-(2-phenylsulfanylethylamino)phenyl]sulfonylpyridazine-3-carboxamide]

ASMS ratio (%) n = 1 (AS-MS, mixture library, Bcl-2): −1.6%
ASMS ratio (%) n = 2 (AS-MS, mixture library, Bcl-2): 0.9%
Compound: CCOc1cncc(-c2ccccc2CN2CCN(c3ccc(C(=O)N(CC)CC)nn3)CC2)c1 [B4J072-01, 6-[4-[[2-(5-Ethoxypyridin-3-yl)phenyl]methyl]piperazin-1-yl]-N,N-diethylpyridazine-3-carboxamide]

ASMS ratio (%) (n = 1): 0.0%
ASMS ratio (%) (n = 2): 0.0%
Compound: CCOc1cccc(-c2ccccc2CCC(=O)N2CCN(c3ccc(C(=O)NS(=O)(=O)C(C)(C)C)nn3)CC2)c1 [B2L011-01, N-tert-Butylsulfonyl-6-[4-[3-[2-(3-ethoxyphenyl)phenyl]propanoyl]piperazin-1-yl]pyridazine-3-carboxamide]

ASMS ratio (%) n = 1 [1]: 0.0%
Compound: CCOc1cccc(-c2cc(CN3CCN(c4ccc(C(=O)NCC56CC7CC(CC(C7)C5)C6)nn4)CC3)cc(OC(F)(F)F)c2)c1 [B1A089-01, N-(1-Adamantylmethyl)-6-[4-[[3-(3-ethoxyphenyl)-5-(trifluoromethoxy)phenyl]methyl]piperazin-1-yl]pyridazine-3-carboxamide]

ASMS ratio (%) n = 1 [2]: 3.9%
ASMS ratio (%) n = 2 [2]: −0.9%
Compound: CCOc1cncc(-c2ccc(CN3CCN(c4ccc(C(=O)Nc5ccc(OC)cc5)nn4)CC3)cc2C)c1 [B1O074-01, 6-[4-[[4-(5-Ethoxypyridin-3-yl)-3-methylphenyl]methyl]piperazin-1-yl]-N-(4-methoxyphenyl)pyridazine-3-carboxamide]

Compound: 6-[4-[4-(3-Ethoxyphenyl)-3-fluorobenzoyl]piperazin-1-yl]-N-propylpyridazine-3-carboxamide [B1M087-01]
ASMS ratio (%) n = 1 [2]: 3.8%
ASMS ratio (%) n = 2 [2]: 3.2%

ASMS ratio (%) (n = 1): 0.0%
ASMS ratio (%) (n = 2): 0.0%
Compound: CCOc1cncc(-c2cc(CN3CCN(c4ccc(C(=O)NS(=O)(=O)c5ccc(NCCSc6ccccc6)c(C(F)(F)F)c5)nn4)CC3)cc(OCC)c2)c1 [B2R082-01, 6-[4-[[3-Ethoxy-5-(5-ethoxypyridin-3-yl)phenyl]methyl]piperazin-1-yl]-N-[4-(2-phenylsulfanylethylamino)-3-(trifluoromethyl)phenyl]sulfonylpyridazine-3-carboxamide]

ASMS ratio (%) n = 1 [1]: 3.2%
ASMS ratio (%) n = 2 [1]: 2.5%
Compound: CCOc1cccc(-c2ccc(C(C)N3CCN(c4ccc(C(=O)NCC56CC7CC(CC(C7)C5)C6)cc4)CC3)cc2)c1 (stereo not shown) [B1A097-01, N-(1-Adamantylmethyl)-4-[4-[1-[4-(3-ethoxyphenyl)phenyl]ethyl]piperazin-1-yl]benzamide]

ASMS ratio (%) (n = 1): 14.3%
ASMS ratio (%) (n = 2): −9.0%
Compound: CCOc1cccc(-c2ccccc2CN2CCN(c3ccc(C(=O)NS(=O)(=O)c4ccc(NCCSc5ccccc5)c(C(F)(F)F)c4)nn3)CC2)c1 [B2R071-01, 6-[4-[[2-(3-Ethoxyphenyl)phenyl]methyl]piperazin-1-yl]-N-[4-(2-phenylsulfanylethylamino)-3-(trifluoromethyl)phenyl]sulfonylpyridazine-3-carboxamide]

ASMS ratio (%) (n = 1): 3.9%
ASMS ratio (%) (n = 2): −5.0%
Compound: CCOc1cncc(-c2ccc(C(C)N3CCN(c4ccc(C(=O)NS(=O)(=O)C(C)(C)C)cc4)CC3)cc2)c1 (stereo not shown) [B2L098-01, N-tert-Butylsulfonyl-4-[4-[1-[4-(5-ethoxypyridin-3-yl)phenyl]ethyl]piperazin-1-yl]benzamide]

ASMS ratio (%) (n = 1): 42.2%
ASMS ratio (%) (n = 2): 5.5%
Compound: CCOc1cccc(C#Cc2ccccc2CN2CCN(c3ccc(C(=O)NS(=O)(=O)c4ccc(NCCSc5ccccc5)c(C(F)(F)F)c4)nn3)CC2)c1 [B2R095-01, 6-[4-[[2-[2-(3-Ethoxyphenyl)ethynyl]phenyl]methyl]piperazin-1-yl]-N-[4-(2-phenylsulfanylethylamino)-3-(trifluoromethyl)phenyl]sulfonylpyridazine-3-carboxamide]

ASMS ratio (%) n = 1 [2]: 8.4%
ASMS ratio (%) n = 2 [2]: −15.2%
Compound: CCOc1cccc(C#Cc2cncc(C(=O)N3CCN(c4ccc(C(=O)N(C)CC56CC7CC(CC(C7)C5)C6)cc4)CC3)c2)c1 [B3A031-01, N-(1-Adamantylmethyl)-4-[4-[5-[2-(3-ethoxyphenyl)ethynyl]pyridine-3-carbonyl]piperazin-1-yl]-N-methylbenzamide]

ASMS ratio (%) (n = 1): 7.5%
ASMS ratio (%) (n = 2): −5.5%
Compound: CCOc1cccc(-c2ccc(CN3CCN(c4ccc(C(=O)NS(=O)(=O)c5ccc(NCCSc6ccccc6)c(C(F)(F)F)c5)cc4)CC3)c(CC)c2)c1 [B2R049-01, 4-[4-[[4-(3-Ethoxyphenyl)-2-ethylphenyl]methyl]piperazin-1-yl]-N-[4-(2-phenylsulfanylethylamino)-3-(trifluoromethyl)phenyl]sulfonylbenzamide]

Compound: 4-[4-[[4-(3-Ethoxyphenyl)thiophen-2-yl]methyl]piperazin-1-yl]-N-propylbenzamide [B1M048-01]
ASMS ratio (%) n = 1 [1]: 0.9%
ASMS ratio (%) n = 2 [1]: 0.3%

ASMS ratio (%) n = 1 [1]: 0.0%
ASMS ratio (%) n = 2 [1]: 0.0%
Compound: CCOc1cccc(-c2cc(C(=O)N3CCN(c4ccc(C(=O)NCC(F)(F)F)nn4)CC3)cc(C(F)(F)F)c2)c1 [B1K017-01, 6-[4-[3-(3-Ethoxyphenyl)-5-(trifluoromethyl)benzoyl]piperazin-1-yl]-N-(2,2,2-trifluoroethyl)pyridazine-3-carboxamide]

ASMS ratio (%) n = 1 (AS-MS, mixture library, Bcl-2): 18.2%
ASMS ratio (%) n = 2 (AS-MS, mixture library, Bcl-2): 2.1%
Compound: CCOc1cncc(-c2ccc(C(C)N3CCN(c4ccc(C(=O)NS(=O)(=O)CC56CC7CC(CC(C7)C5)C6)cc4)CC3)cc2)c1 (stereo not shown) [B2A098-01, N-(1-Adamantylmethylsulfonyl)-4-[4-[1-[4-(5-ethoxypyridin-3-yl)phenyl]ethyl]piperazin-1-yl]benzamide]

ASMS ratio (%) n = 1 [2]: 3.8%
ASMS ratio (%) n = 2 [2]: 3.2%
Compound: CCOc1cccc(-c2cnn(-c3cc(C(=O)N4CCN(c5ccc(C(=O)N(CC)CC)cc5)CC4)cc(C(F)(F)F)c3)c2)c1 [B4J043-01, 4-[4-[3-[4-(3-Ethoxyphenyl)pyrazol-1-yl]-5-(trifluoromethyl)benzoyl]piperazin-1-yl]-N,N-diethylbenzamide]

ASMS ratio (%) n = 1 (AS-MS, mixture library, Bcl-2): 17.5%
ASMS ratio (%) n = 2 (AS-MS, mixture library, Bcl-2): −0.9%
Compound: CCOc1cncc(-c2ccc(CN3CCN(c4ccc(C(=O)NS(=O)(=O)CC56CC7CC(CC(C7)C5)C6)cc4)CC3)c(OC)c2)c1 [B2A054-01, N-(1-Adamantylmethylsulfonyl)-4-[4-[[4-(5-ethoxypyridin-3-yl)-2-methoxyphenyl]methyl]piperazin-1-yl]benzamide]

ASMS ratio (%) n = 1 (AS-MS, mixture library, Bcl-2): 0.0%
ASMS ratio (%) n = 2 (AS-MS, mixture library, Bcl-2): 0.0%
Compound: CCOc1cncc(-c2cc(C(=O)N3CCN(c4ccc(C(=O)NS(C)(=O)=O)nn4)CC3)cc(C(F)(F)F)c2)c1 [B2I018-01, 6-[4-[3-(5-Ethoxypyridin-3-yl)-5-(trifluoromethyl)benzoyl]piperazin-1-yl]-N-methylsulfonylpyridazine-3-carboxamide]

ASMS ratio (%) (n = 1): 0.0%
ASMS ratio (%) (n = 2): 0.0%
Compound: CCOc1cccc(-c2cnn(-c3cc(C(=O)N4CCN(c5ccc(C(=O)NS(=O)(=O)C(C)(C)C)cc5)CC4)cc(C(F)(F)F)c3)c2)c1 [B2L043-01, N-tert-Butylsulfonyl-4-[4-[3-[4-(3-ethoxyphenyl)pyrazol-1-yl]-5-(trifluoromethyl)benzoyl]piperazin-1-yl]benzamide]

ASMS ratio (%) n = 1 (AS-MS, mixture library, Bcl-2): 12.0%
ASMS ratio (%) n = 2 (AS-MS, mixture library, Bcl-2): 14.0%
Compound: CCOc1cncc(-c2cc(CN3CCN(c4ccc(C(=O)NS(=O)(=O)CC56CC7CC(CC(C7)C5)C6)nn4)CC3)cc(C(F)(F)F)c2)c1 [B2A088-01, N-(1-Adamantylmethylsulfonyl)-6-[4-[[3-(5-ethoxypyridin-3-yl)-5-(trifluoromethyl)phenyl]methyl]piperazin-1-yl]pyridazine-3-carboxamide]

ASMS ratio (%) n = 1 (AS-MS, mixture library, Bcl-2): 0.0%
ASMS ratio (%) n = 2 (AS-MS, mixture library, Bcl-2): 0.0%
Compound: CCOc1cccc(-c2ccc(CN3CCN(c4ccc(C(=O)NS(=O)(=O)c5ccc(NCCSc6ccccc6)c([N+](=O)[O-])c5)nn4)CC3)c(CC)c2)c1 [B2Q075-01, 6-[4-[[4-(3-Ethoxyphenyl)-2-ethylphenyl]methyl]piperazin-1-yl]-N-[3-nitro-4-(2-phenylsulfanylethylamino)phenyl]sulfonylpyridazine-3-carboxamide]

ASMS ratio (%) (n = 1): 0.0%
ASMS ratio (%) (n = 2): 0.0%
Compound: CCOc1cncc(-c2cc(C(=O)N3CCN(c4ccc(C(=O)NS(=O)(=O)CCC(F)(F)F)cc4)CC3)cc(C(C)(C)C)c2)c1 [B2N038-01, 4-[4-[3-tert-Butyl-5-(5-ethoxypyridin-3-yl)benzoyl]piperazin-1-yl]-N-(3,3,3-trifluoropropylsulfonyl)benzamide]

ASMS ratio (%) n = 1 [2]: 0.0%
ASMS ratio (%) n = 2 [2]: 0.0%
Compound: CCOc1cncc(-c2ccc(C(=O)N3CCN(c4ccc(C(=O)N(C)CC56CC7CC(CC(C7)C5)C6)nn4)CC3)cc2F)c1 [B3A006-01, N-(1-Adamantylmethyl)-6-[4-[4-(5-ethoxypyridin-3-yl)-3-fluorobenzoyl]piperazin-1-yl]-N-methylpyridazine-3-carboxamide]

ASMS ratio (%) n = 1 [2]: 3.3%
ASMS ratio (%) n = 2 [2]: −2.0%
Compound: CCOc1cncc(-c2cc(CN3CCN(c4ccc(C(=O)Nc5ccc(OC)cc5)nn4)CC3)cc(OC(F)(F)F)c2)c1 [B1O090-01, 6-[4-[[3-(5-Ethoxypyridin-3-yl)-5-(trifluoromethoxy)phenyl]methyl]piperazin-1-yl]-N-(4-methoxyphenyl)pyridazine-3-carboxamide]
